Reference: patent US9326973B2, “Hepatitis C virus inhibitors” (priority 2012, dated 2016)

Tested on: HCV replicon, genotype-1a variant with glutamine 30 changed to glutamate in the NS5A protein
Experiment: microbe, parasite or virus in culture
Type: cell-based, HCV genotype 1a
Conditions: HCV replicon genotype 1a Q30E (Q→E) variant; test compound titrated with an NS5A-targeting compound (BMS-790052 fixed at 200 nM); ranking of synergist activity
Procedure, shortened: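 Synergy was assessed by combining several fixed amounts of an NS5A-targeting compound with a titration of the second compound of interest.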

Structure (SMILES)	Fold-Synergistic 1a (Q30E) [fold]
CCC(C)[C@H](NC(=O)CC(C)C)c1nc(-c2ccc(-c3ccc(-c4c[nH]c([C@@H](NC(=O)CC(C)C)C(C)CC)n4)cc3)cc2)c[nH]1 (some centres unmarked) [Compound N-34]	>100
O=C(Cc1ccc(-c2ccccc2)cc1)N1CCC[C@H]1c1ncc(-c2ccc(-c3ccc(-c4cnc([C@@H]5CCCN5C(=O)Cc5ccc(-c6ccccc6)cc5)[nH]4)cc3)cc2)[nH]1 [Compound S-147]	<10
COC(=O)N[C@H](C(=O)N[C@H](c1nc(-c2ccc(-c3ccc(-c4c[nH]c([C@@H](NC(=O)[C@@H](NC(=O)OC)C5C[C@@H](C)O[C@H](C)C5)C(C)(C)C)n4)cc3)cc2)c[nH]1)C(C)(C)C)C1C[C@@H](C)O[C@H](C)C1 (stereo partly drawn) [Compound L-72]	>10
COC(=O)N[C@H](C(=O)NC1(c2nc(-c3ccc(-c4ccc(-c5c[nH]c(C6(NC(=O)[C@@H](NC(=O)OC)C(C)C)CC=CC6)n5)cc4)cc3)c[nH]2)CC=CC1)C(C)C [Compound N-15]	<10
CC(C)(C)[C@H](NC(=O)C(=O)N(CCC#N)C1CC1)c1nc(-c2ccc(-c3ccc(-c4c[nH]c([C@@H](NC(=O)C(=O)N(CCC#N)C5CC5)C(C)(C)C)n4)cc3)cc2)c[nH]1 [Compound W-48]	>100
O=C(c1ccc(-c2ccccc2)cc1)N1CCC[C@H]1c1ncc(-c2ccc(-c3ccc(-c4cnc([C@@H]5CCCN5C(=O)c5ccc(-c6ccccc6)cc5)[nH]4)cc3)cc2)[nH]1 [Compound S-117]	>10
CC1(C(=O)N[C@H](c2nc(-c3ccc(-c4ccc(-c5c[nH]c([C@@H](NC(=O)C6(C)COC(c7ccccc7)OC6)C(C)(C)C)n5)cc4)cc3)c[nH]2)C(C)(C)C)COC(c2ccccc2)OC1 (some centres unmarked) [Compound S-280]	>100
CC(C)(C)OC(=O)N1CCC[C@@H]1C(=O)N[C@H](c1nc(-c2ccc(-c3ccc(-c4c[nH]c([C@@H](NC(=O)[C@H]5CCCN5C(=O)OC(C)(C)C)C(C)(C)C)n4)cc3)cc2)c[nH]1)C(C)(C)C [Compound W-87]	>100
COC(=O)C1(C(=O)N[C@H](c2nc(-c3ccc(-c4ccc(-c5c[nH]c([C@@H](NC(=O)C6(C(=O)OC)CCCCC6)C(C)(C)C)n5)cc4)cc3)c[nH]2)C(C)(C)C)CCCCC1 [Compound S-273]	>100
O=C(c1cnc2ccccc2c1)N1CCC[C@H]1c1ncc(-c2ccc(-c3ccc(-c4cnc([C@@H]5CCCN5C(=O)c5cnc6ccccc6c5)[nH]4)cc3)cc2)[nH]1 [Compound S-124]	>10
CC(C)CC(=O)N[C@@H](CC(C)C)c1nc(-c2ccc(-c3ccc(-c4c[nH]c([C@H](CC(C)C)NC(=O)CC(C)C)n4)cc3)cc2)c[nH]1 [Compound N-31]	>10
CC(C)CC(=O)N[C@H](c1ncc(-c2ccc(C#Cc3ccc(-c4cnc([C@@H](NC(=O)CC(C)C)C(C)C)[nH]4)cc3)cc2)[nH]1)C(C)C [Compound N-6]	>10
N#Cc1ccccc1C(=O)N1CCC[C@H]1c1ncc(-c2ccc(-c3ccc(-c4cnc([C@@H]5CCCN5C(=O)c5ccccc5C#N)[nH]4)cc3)cc2)[nH]1 [Compound S-127]	<10
CCCC[C@@H](CC(=O)OC(C)(C)C)C(=O)N[C@H](c1nc(-c2ccc(-c3ccc(-c4c[nH]c([C@@H](NC(=O)[C@@H](CCCC)CC(=O)OC(C)(C)C)C(C)(C)C)n4)cc3)cc2)c[nH]1)C(C)(C)C [Compound S-260]	>100
CC(C)[C@H](NC(=O)[C@@]1(C)CCC(F)(F)CO1)c1nc(-c2ccc(-c3ccc(-c4c[nH]c([C@@H](NC(=O)[C@@]5(C)CCC(F)(F)CO5)C(C)C)n4)cc3)cc2)c[nH]1 [Compound Y-78]	>100
Cc1cc(-c2ccc(-c3c[nH]c([C@@H](NC(=O)C4(C)CCC(F)(F)CC4)C(C)C)n3)cc2)ccc1-c1c[nH]c([C@@H](NC(=O)C2(C)CCC(F)(F)CC2)C(C)C)n1 [Compound N-84]	>100
CC(C)[C@H](NC(=O)C(=O)N1CCC(C(F)(F)F)CC1)c1nc(-c2ccc(-c3ccc(-c4c[nH]c([C@@H](NC(=O)C(=O)N5CCC(C(F)(F)F)CC5)C(C)C)n4)cc3)cc2)c[nH]1 [Compound W-53]	>100
CC(C)(C)OC(=O)N1CC2(CC2)C[C@H]1C(=O)N[C@H](c1nc(-c2ccc(-c3ccc(-c4c[nH]c([C@@H](NC(=O)[C@@H]5CC6(CC6)CN5C(=O)OC(C)(C)C)C(C)(C)C)n4)cc3)cc2)c[nH]1)C(C)(C)C [Compound W-94]	>100
CC(C)[C@@H](O)C(=O)N[C@H](c1nc(-c2ccc(-c3ccc(-c4c[nH]c([C@@H](NC(=O)[C@H](O)C(C)C)C(C)(C)C)n4)cc3)cc2)c[nH]1)C(C)(C)C [Compound L-82]	>100
COc1cccc2c(C(=O)N3C(c4ncc(-c5ccc(-c6ccc(-c7cnc(C8C[C@H]9C[C@H]9N8C(=O)c8nc(Cl)cc9c(OC)cccc89)[nH]7)cc6)cc5)[nH]4)C[C@H]4C[C@H]43)nc(Cl)cc12 (some centres unmarked) [Compound P-49]	>100
CC(C)[C@H](NC(=O)[C@@H]1C[C@H](O)CN1C(=O)OC(C)(C)C)c1nc(-c2ccc(-c3ccc(-c4c[nH]c([C@@H](NC(=O)[C@@H]5C[C@H](O)CN5C(=O)OC(C)(C)C)C(C)C)n4)cc3)cc2)c[nH]1 [Compound W-100]	>100
CC1(C)CCCC(C)(C(=O)N[C@H](c2nc(-c3ccc(-c4ccc(-c5c[nH]c([C@@H](NC(=O)C6(C)CCCC(C)(C)O6)C(C)(C)C)n5)cc4)cc3)c[nH]2)C(C)(C)C)O1 (some centres unmarked) [Compound W-168]	>10
CCN(CCC#N)C(=O)C(C)(C)C(=O)N[C@H](c1nc(-c2ccc(-c3ccc(-c4c[nH]c([C@@H](NC(=O)C(C)(C)C(=O)N(CC)CCC#N)C(C)(C)C)n4)cc3)cc2)c[nH]1)C(C)(C)C [Compound W-158]	>100
CC1(C(=O)N[C@H](c2nc(-c3ccc(-c4ccc(-c5c[nH]c([C@@H](NC(=O)C6(C)CC6)C(C)(C)C)n5)cc4)cc3)c[nH]2)C(C)(C)C)CC1 [Compound L-45]	>100
CC(C)(C(=O)N[C@H](c1nc(-c2ccc(-c3ccc(-c4c[nH]c([C@@H](NC(=O)C(C)(C)C(=O)N5CC[C@H](O)C5)C(C)(C)C)n4)cc3)cc2)c[nH]1)C(C)(C)C)C(=O)N1CC[C@H](O)C1 [Compound W-152]	>100
CC1(C)CCCC(C)(C(=O)N[C@H](c2nc(-c3ccc(-c4ccc(-c5c[nH]c([C@@H](NC(=O)C6(C)CCCC(C)(C)O6)C(C)(C)C)n5)cc4)cc3)c[nH]2)C(C)(C)C)O1 (some centres unmarked) [Compound W-167]	>100
COC(C)(C)C(=O)N[C@H](c1nc(-c2ccc(-c3ccc(-c4c[nH]c([C@@H](NC(=O)C(C)(C)OC)C(C)C)n4)cc3F)cc2)c[nH]1)C(C)C [Compound N-96]	>100
COC(=O)N(C)C1(C(=O)N[C@H](c2nc(-c3ccc(-c4ccc(-c5c[nH]c([C@@H](NC(=O)C6(N(C)C(=O)OC)CC6)C6(C)CC6)n5)cc4)cc3)c[nH]2)C2(C)CC2)CC1 [Compound L-30]	>100
CC(C)(C)[C@H](NC(=O)[C@H]1COC(=O)N1)c1nc(-c2ccc(-c3ccc(-c4c[nH]c([C@@H](NC(=O)[C@H]5COC(=O)N5)C(C)(C)C)n4)cc3)cc2)c[nH]1 [Compound L-9]	>10
